Measurements as given in publication PMC10377574, “Preclinical Characterization of a Stabilized Gastrin-Releasing Peptide Receptor Antagonist for Targeted Cancer Theranostics” (Biomolecules, 2023).
Values belong to the compound of their own block, whether it stands above or below them.

What was measured:
in vivo = details: Balb/c nu/nu, mouse, iv, 40 pmol, total radioactivity
Procedure: (§1) Biodistribution was conducted in Balb/c nu/nu mice (Scanbur A/S, Stockholm, Sweden), implanted subcutaneously in their flanks with PC-3 cells (6 × 10^6 cells/mouse) 3–4 weeks before the study. […] Biodistributions were conducted at 1 h pi for both control groups.

[1] = mouse, in vivo
Procedure: (§2) Pills were ground to a fine powder in a mortar, divided, and suspended in tab water to individual 12 mg/200 mL doses of pill per animal administered per os (Entresto® group) [35].
(§3) The in vivo stability was determined in healthy male Swiss albino mice (12 mice in total, body weights 30 ± 5 g). Briefly, each radiolabeled peptide was injected as a bolus (100 μL, 11–22 MBq, 3 nmol of total peptide in saline/EtOH 9/1 v/v) in the tail vein of mice either untreated (controls) or 20 min after having received per os a slurry of an Entresto® pill (individual 12 mg/200 mL doses of pill per animal; Entresto®-group; Novartis, Basel, Switzerland), as previously described [34, 35]. Blood was collected 5 min post-injection (pi) in a chilled syringe directly from the heart (0.5–1 mL) and samples were processed prior to being analyzed by HPLC for the detection of forming radiometabolites, as previously described [25, 35]. For analyses, an XBridge Shield RP18 (5 μm, 4.6 mm × 20 mm) column (Waters, Vienna, Austria) was eluted at a flow rate of 1 mL/min with 0.1% TFA in H2O (A) and MeCN (B) with the following linear gradient system: 100%A/0%B at 0 min, with B linearly increasing by 1%/min to 60%A/40%B (system 2).

[2] = In vivo metabolic stability in peripheral mice blood, HPLC; details: 5 min pi
Procedure: as §2, §3

[3] = Biodistribution in negative control mice bearing DU-145 tumors; assay type: in vivo; details: Balb/c nu/nu, mouse, iv, 40 pmol, total radioactivity, 1 h pi, n = 4
Procedure: as §1

[4] = Radiometal complex stability (PBS, EDTA challenge, human serum), ITLC; details: 1 h at 37 °C, n = 3
Procedure: The radiochemical stability to transchelation was assessed by incubation of the radiolabeled peptide either with 1000× molar excess of EDTA or by incubation in human serum for 1 h at 37 °C. Incubation of radiolabeled peptide in PBS was used as control. The leakage of radiometal from the radiometal-chelate was determined with ITLC.

[5] = system: PC-3 tumors (GRPR-positive); test: Biodistribution in mice bearing PC-3 tumors; details: 1 h pi, n = 4
Procedure: as §1

[6] = Biodistribution in mice bearing PC-3 tumors; details: Balb/c nu/nu, mouse, iv, total radioactivity, n = 4; for tissue uptake at 1 h: 1 h pi; for tissue uptake at 4 h: 4 h pi; for tissue uptake at 24 h: 24 h pi
Procedure: as §1

[7] = PC-3 tumor, 40 pmol, Tumor (PC-3) uptake
[8] = kidneys, 40 pmol, Kidneys uptake
[9] = pancreas, 40 pmol, Pancreas uptake
[10] = small intestine, 40 pmol, Small intestine uptake

tissue uptake at 1 h (in vivo; Blood uptake): 0.5 ± 0.3 %ID/g
tissue uptake at 4 h (in vivo; Blood uptake): 0.07 ± 0.01 %ID/g
tissue uptake at 24 h (in vivo; Blood uptake): 0.015 ± 0.003 %ID/g
tissue uptake at 1 h (in vivo; Bone uptake): 0.13 ± 0.08 %ID/g
tissue uptake at 4 h (in vivo; Bone uptake): 0.07 ± 0.04 %ID/g
tissue uptake at 24 h (in vivo; Bone uptake): 0.04 ± 0.03 %ID/g
tissue uptake at 1 h (in vivo; Kidneys uptake): 4.6 ± 0.9 %ID/g
tissue uptake at 4 h (in vivo; Kidneys uptake): 3.5 ± 0.7 %ID/g
tissue uptake at 24 h (in vivo; Kidneys uptake): 2 ± 0.5 %ID/g
tissue uptake at 1 h (in vivo; Liver uptake): 0.5 ± 0.1 %ID/g
tissue uptake at 4 h (in vivo; Liver uptake): 0.23 ± 0.05 %ID/g
tissue uptake at 24 h (in vivo; Liver uptake): 0.16 ± 0.02 %ID/g
tissue uptake at 1 h (in vivo; Lungs uptake): 0.5 ± 0.2 %ID/g
tissue uptake at 4 h (in vivo; Lungs uptake): 0.11 ± 0.02 %ID/g
tissue uptake at 24 h (in vivo; Lungs uptake): 0.04 ± 0.01 %ID/g
tissue uptake at 1 h (in vivo; Muscle uptake): 0.11 ± 0.08 %ID/g
tissue uptake at 4 h (in vivo; Muscle uptake): 0.04 ± 0.01 %ID/g
tissue uptake at 24 h (in vivo; Muscle uptake): 0.01 ± 0.01 %ID/g
tissue uptake at 1 h (in vivo; Pancreas uptake): 1.9 ± 1 %ID/g
tissue uptake at 4 h (in vivo; Pancreas uptake): 0.18 ± 0.04 %ID/g
tissue uptake at 24 h (in vivo; Pancreas uptake): 0.03 ± 0.01 %ID/g
tissue uptake at 1 h (in vivo; Small intestine uptake): 0.8 ± 0.2 %ID/g
tissue uptake at 4 h (in vivo; Small intestine uptake): 0.13 ± 0.04 %ID/g
tissue uptake at 24 h (in vivo; Small intestine uptake): 0.05 ± 0.05 %ID/g
tissue uptake at 1 h (in vivo; Spleen uptake): 0.21 ± 0.06 %ID/g
tissue uptake at 4 h (in vivo; Spleen uptake): 0.1 ± 0.02 %ID/g
tissue uptake at 24 h (in vivo; Spleen uptake): 0.1 ± 0.03 %ID/g
tissue uptake at 1 h (in vivo; Tumor (PC-3) uptake): 6 ± 0.4 %ID/g
tissue uptake at 4 h (in vivo; Tumor (PC-3) uptake): 3 ± 1 %ID/g
tissue uptake at 24 h (in vivo; Tumor (PC-3) uptake): 1.2 ± 0.4 %ID/g
% degraded in peripheral mice blood [1]: about 30%
Compound: CC(C)C[C@H](NC(=O)C[C@H](O)[C@H](CC(C)C)NC(=O)[C@H](Cc1c[nH]cn1)NC(=O)CNC(=O)[C@@H](NC(=O)[C@H](C)NC(=O)[C@H](Cc1c[nH]c2ccccc12)NC(=O)[C@H](CCC(N)=O)NC(=O)[C@@H](Cc1ccccc1)NC(=O)COCCOCCNC(=O)CCC(C(=O)O)N1CCN(CC(=O)O)CCN(CC(=O)O)CCN(CC(=O)O)CC1)C(C)C)C(N)=O (mixture of isomers) [[^111In]In-DOTAGA-PEG2-RM26, metal not drawn]

% intact radioligand in peripheral mice blood ([2]; Entresto-treated group (NEP inhibition, per os)): 91 ± 2%
% intact radioligand in peripheral mice blood ([2]; control (untreated) mice): 88 ± 8%
tissue uptake at 1 h ([3]; DU-145 tumor, read-out: uptake in DU-145 tumors (GRPR-negative)): 0.9 ± 0.2 %ID/g
tissue uptake at 1 h ([3]; pancreas, DU-145 tumor-bearing mice, read-out: pancreas uptake, negative control group): 2.2 ± 0.7 %ID/g
Radiochemical stability, % protein-associated activity, EDTA ([4]; 1000× molar excess of EDTA): 98.7 ± 0.3%
Radiochemical stability, % protein-associated activity, PBS ([4]; PBS control): 100.0 ± 0.3%
Radiochemical stability, % protein-associated activity, Serum ([4]; human serum): 99.2 ± 0.3%
Pancreas uptake [5]: 2.23 ± 0.56 %IA/g
tissue uptake at 1 h [6, 7]: 7 ± 0.7 %ID/g
tissue uptake at 4 h [6, 7]: 5.7 ± 1.8 %ID/g
tissue uptake at 24 h [6, 7]: 1.8 ± 0.6 %ID/g
tissue uptake at 1 h ([6]; PC-3 tumor, with unlabeled NOTA-PEG2-RM26, 5 nmol (in vivo GRPR blocking), PC-3 tumor uptake, GRPR-blocking group, excess unlabeled NOTA-PEG2-RM26 (5 nmol)): 0.9 ± 0.6 %ID/g
tissue uptake at 1 h ([6]; blood, 40 pmol, Blood uptake): 0.6 ± 0.1 %ID/g
tissue uptake at 4 h ([6]; blood, 40 pmol, Blood uptake): 0.11 ± 0.07 %ID/g
tissue uptake at 24 h ([6]; blood, 40 pmol, Blood uptake): 0.02 ± 0.01 %ID/g
tissue uptake at 1 h ([6]; bone, 40 pmol, Bone uptake): 0.17 ± 0.09 %ID/g
tissue uptake at 4 h ([6]; bone, 40 pmol, Bone uptake): 0.09 ± 0.03 %ID/g
tissue uptake at 24 h ([6]; bone, 40 pmol, Bone uptake): 0.06 ± 0.03 %ID/g
tissue uptake at 1 h [6, 8]: 7.2 ± 0.9 %ID/g
tissue uptake at 4 h [6, 8]: 6 ± 1 %ID/g
tissue uptake at 24 h [6, 8]: 3 ± 0.9 %ID/g
tissue uptake at 1 h ([6]; liver, 40 pmol, Liver uptake): 0.55 ± 0.04 %ID/g
tissue uptake at 4 h ([6]; liver, 40 pmol, Liver uptake): 0.24 ± 0.02 %ID/g
tissue uptake at 24 h ([6]; liver, 40 pmol, Liver uptake): 0.1 ± 0.03 %ID/g
tissue uptake at 1 h ([6]; lungs, 40 pmol, Lungs uptake): 0.46 ± 0.09 %ID/g
tissue uptake at 4 h ([6]; lungs, 40 pmol, Lungs uptake): 0.17 ± 0.06 %ID/g
tissue uptake at 24 h ([6]; lungs, 40 pmol, Lungs uptake): 0.03 ± 0.03 %ID/g
tissue uptake at 1 h ([6]; muscle, 40 pmol, Muscle uptake): 0.15 ± 0.08 %ID/g
tissue uptake at 4 h ([6]; muscle, 40 pmol, Muscle uptake): 0.13 ± 0.05 %ID/g
tissue uptake at 24 h ([6]; muscle, 40 pmol, Muscle uptake): 0.01 ± 0.01 %ID/g
tissue uptake at 1 h [6, 9]: 2.2 ± 0.6 %ID/g
tissue uptake at 4 h [6, 9]: 0.29 ± 0.02 %ID/g
tissue uptake at 24 h [6, 9]: 0.03 ± 0.01 %ID/g
tissue uptake at 1 h ([6]; pancreas, with unlabeled NOTA-PEG2-RM26, 5 nmol (in vivo GRPR blocking), pancreas uptake, blocked group, excess unlabeled NOTA-PEG2-RM26 (5 nmol)): 0.3 ± 0.2 %ID/g
tissue uptake at 1 h [6, 10]: 1.1 ± 0.6 %ID/g
tissue uptake at 4 h [6, 10]: 0.3 ± 0.2 %ID/g
tissue uptake at 24 h [6, 10]: 0.03 ± 0.01 %ID/g
tissue uptake at 1 h ([6]; spleen, 40 pmol, Spleen uptake): 0.3 ± 0.2 %ID/g
tissue uptake at 4 h ([6]; spleen, 40 pmol, Spleen uptake): 0.22 ± 0.07 %ID/g
tissue uptake at 24 h ([6]; spleen, 40 pmol, Spleen uptake): 0.1 ± 0.03 %ID/g
Compound: CC(C)C[C@H](NC(=O)C[C@H](O)[C@H](CC(C)C)NC(=O)[C@H](Cc1c[nH]cn1)NC(=O)CN(C)C(=O)[C@@H](NC(=O)[C@H](C)NC(=O)[C@H](Cc1c[nH]c2ccccc12)NC(=O)[C@H](CCC(N)=O)NC(=O)[C@@H](Cc1ccccc1)NC(=O)COCCOCCNC(=O)CCC(C(=O)O)N1CCN(CC(=O)O)CCN(CC(=O)O)CCN(CC(=O)O)CC1)C(C)C)C(N)=O (mixture of isomers) [[^111In]In-AU-RM26-M1, [^111In]In-DOTAGA-PEG2-(Sar^11)RM26, metal not drawn]
